Reference: the METLIN SMRT retention time set (Domingo-Almenara et al. 2019)

Experiment: gradient 5% acetonitrile 3 min, to 50% in 2 min, to 85% in 15 min, held 3 min, 100 µL/min
Settings: column: Zorbax Extend-C18 2.1 x 50 mm; eluents: water / acetonitrile, 0.1% formic acid
In short: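 A Zorbax Extend-C18 column (2.1 × 50 mm, 1.8 μm) run at 100 μL/min with water and acetonitrile, both containing 0.1% formic acid, separated mixtures of ~100 pure standards. The HPLC was coupled to a quadrupole time-of-flight mass spectrometer operated in positive and negative ionization mode, with dead and dwell volumes of 40 μL and 900 μL. Each retention time was taken from a computationally picked adduct peak that was then manually inspected.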

Structure (SMILES) | RP-LC retention time [s]
Cc1ccccc1-c1nc(-c2cccc(-c3ccn[nH]3)c2)no1 | 1080
O=C(C1CC(=O)N(C2CCCCC2)C1)N1CCC2(CC1)NCCc1c2[nH]c2ccccc12 (configuration not stated) | 654
COc1cccc(-c2nc3sc(C(=O)N(C)C)c(C)n3c2NC(C)(C)C)c1 | 773
Cc1cc(C(=O)NCCc2ccco2)c2c(=O)n(C)c(=O)n(C)c2n1 | 688
CCOc1cccc(-c2noc(CN3C(=O)COc4ccc(C(C)(C)C)cc43)n2)c1 | 1380
COCc1nc(-c2ccc(OC3CN(Cc4ccsc4)C3)cc2)no1 | 656
O=C(CCC(=O)N1c2ccccc2NC2=C(C(=O)CCC2)C1c1ccco1)Nc1ccccc1 (configuration not stated) | 744
Cn1cc(CC(=O)NCc2ccc(Br)cc2)c2cccnc21 | 736
Cc1cccc(CNC(=O)c2cc3n(n2)CC(C)(C(=O)NCc2ccccc2)N(C)C3=O)c1 (configuration not stated) | 732
COc1ccc(C(=O)NC2CCCCCC2)cc1CN1CC(=O)N2CCCC2C1=O (configuration not stated) | 702
CCOc1ccccc1-c1c(C#N)c(N)nc2c1c(=O)n(C)c(=O)n2C | 786
Cc1cc(N2CCOCC2)nc(N2CCOCC2)n1 | 624
COc1ccc(C(=O)COc2ccccc2OC)cc1 | 825
CCCCn1c(=O)c2ccccc2n(Cc2nc(-c3ccc(Cl)cc3)no2)c1=O | 1280
O=C(CCN(CC1CCCO1)C(=O)c1cccc(Br)c1)N1CCNCC1 (configuration not stated) | 610
CC(C)c1noc(-c2ccnc(-n3cnc(C(=O)NC(C)c4ccccc4)c3)c2)n1 (configuration not stated) | 1000
O=C(NN1CCCCC1)NN1CCCCC1 | 626
CCN(CC)C(=O)C1CCN(S(C)(=O)=O)c2cc(Cl)ccc2O1 (configuration not stated) | 821
Cc1ccc(-c2noc(Cn3c(=O)n(-c4ccccc4C)c(=O)c4sccc43)n2)cc1C | 1110
CCCN1CCO[C@@H]2c3cc(O)ccc3OC[C@H]21 | 645
O=C(Cn1nc2c(cc1=O)CCCC2)Nc1nc(-c2ccc3c(c2)OCCCO3)cs1 | 862
CCNC(=O)N1CC(n2cc(C(=O)NCCCOC)nn2)C1 | 580
Cn1c(=O)n(C)c2cc(S(=O)(=O)c3ccc(F)cc3)c(NC(=O)Cc3cccs3)cc21 | 790
Cc1nn2c(CNS(=O)(=O)Cc3ccccc3)c(-c3ccccc3)nc2s1 | 876
O=C(CN1CCN(Cc2ccccc2F)C1=O)NCCc1cccs1 | 778
NC(=O)C1CCN(C(=O)Cn2c(=O)n(C3CCCCC3)c(=O)c3cc(Br)ccc32)CC1 | 771
CCCN1C(=O)NC(=O)C2NCNC21 (configuration not stated) | 604
CC(C)(C)NC(=O)c1ccc(C(=O)NC(C)(C)C)cc1 | 840

Results, then the molecule that gave them:

RP-LC retention time [s] | Structure (SMILES)
576 | CSc1ccc(NC(=O)N2CCN(c3cnn4c(C)nnc4c3)CC2)cc1
720 | Cc1ccc(-c2nc3n(CC(=O)NCC4CCCO4)c4c(c(=O)n3n2)CCC4)cc1 (configuration not stated)
888 | O=C(Cn1nc2c3cc(-c4ccc(F)cc4)nn3ccn2c1=O)Nc1ccc(F)cc1
846 | Cc1cc(C)cc(NC(=O)N2CCC(n3cnc4cc(F)ccc4c3=O)CC2)c1
646 | Cc1ccc2c(c1)C(=O)C1(O)CCN(c3ccccc3)C1=N2 (configuration not stated)
944 | Cc1c(Cl)cccc1S(=O)(=O)N1CCCN(c2ccc(=O)n(-c3ccccc3)n2)CC1
763 | COCCn1c(C2CCN(S(=O)(=O)c3ccc(F)cc3)C2)nc2cccnc21 (configuration not stated)
661 | Cc1nc(-c2ccccc2Cl)sc1C(=O)N1CCN(c2ccccn2)CC1
718 | O=C(NC1CC1)c1ccc(OCC2CCCN(C(=O)C3CC3)C2)cc1 (configuration not stated)
543 | Cc1ccn2cc(C(=O)NCc3ccc(N(C)C)cc3)nc2c1
648 | CCC(C)n1nnc2cc(S(=O)(=O)N3CCC(C(=O)NCc4cccnc4)CC3)ccc21 (configuration not stated)
867 | CN(C)c1cccc(C(=O)N2CCC3(CC2)N=C(c2ccc(Br)cc2)NO3)c1
989 | Cc1nc(-c2ccc3c(c2)n(CC(=O)N2c4ccccc4CC2C)c(=O)n3C(C)C)no1 (configuration not stated)
990 | Cc1ccc(CN2CCN(C3CCN(S(=O)(=O)c4ccc(C)c(Cl)c4)CC3)C(=O)C2=O)cc1
1210 | Cc1cccc(Sc2nccnc2N2CCCC(C(=O)NCc3ccc(C)c(C)c3)C2)c1 (configuration not stated)
641 | CCCN1CCN(C(=O)CCc2c(C)c(C(=O)OCC)n(C)c2C)CC1
654 | Cc1cc(C)c2c(N3CCCC3)nc(C(=O)N(C)Cc3ccccc3)nc2n1
572 | CC1CCN(c2cc(-c3noc(C(=O)NCCN4CCOCC4)n3)ccn2)CC1
1220 | Cc1ccc(C)c(-c2cc3c(=O)n(Cc4nc(-c5ccccc5Br)no4)ncn3n2)c1
779 | COCC(=O)N1CCC(Oc2nccnc2N2CCc3ccccc32)C1 (configuration not stated)

RP-LC retention time [s] | Structure (SMILES)
715 | Cn1ccnc1C(=O)N1CC(n2cc(COc3ccc(F)cc3)nn2)C1
1140 | CCc1ccc(CNC(=O)C2CCCN(c3nccnc3Sc3ccccc3)C2)cc1 (configuration not stated)
970 | Cc1cc(C)n(-c2nc(CC(=O)N3CCc4ccccc4C3)cs2)n1
613 | O=C(C1CCN(c2cncnc2N2CCCC2)CC1)N1CCCCC1
1080 | COc1cccc(NS(=O)(=O)c2c(C)nn(-c3ccc(-c4ccc(C)cc4)nn3)c2C)c1
770 | Cc1ccc(NC(=O)C2CC(=O)N(c3n[nH]c4cccc(F)c34)C2)c(C)c1 (configuration not stated)
550 | Cc1nc2ccccc2n1Cc1nnc2sc(-c3cccnc3)nn12
575 | CCn1cc(CN2CCCCC2c2nncn2Cc2ccccc2)cn1 (configuration not stated)
1040 | CCCc1noc(-c2cccnc2-n2cnc(C(=O)Nc3cc(C)cc(C)c3)c2)n1
610 | COC(=O)c1cnc(N2CCN(C)CC2)c2ccccc12
554 | Cn1ccc(CN2CCN(Cc3ccccc3F)CC2)cc1=O
606 | CCOC(=O)c1ccc(NC(=O)N2CC=C(c3cn(CC)c4ncccc34)CC2)cc1
640 | Cc1ccc(CNC(=O)C2CCCN(c3nc4ncccc4n4cccc34)C2)cc1 (configuration not stated)
719 | CCc1noc(NC(C)=O)c1-c1ccc(C)c(S(=O)(=O)Nc2ccccc2)c1
632 | COc1ccc(Cl)c2c(=O)c3c([nH]c12)CCN(CC(=O)Nc1ccc(C)cc1)C3
671 | O=C(C1CCN(S(=O)(=O)N2CCCC2)CC1)N1CCN(Cc2noc3ccccc23)CC1
850 | O=C(Nc1ccc2c(c1)OCCO2)C(=O)c1cn(CC(=O)N2CCOCC2)c2ccccc12
740 | COCCN1CCn2cc(S(=O)(=O)Nc3ccc(C)c(F)c3)cc2C1=O
1370 | CCCc1ccc(S(=O)(=O)N2CCC(c3noc(-c4cccc(C)c4)n3)CC2)cc1
